Assay results as given in patent publication US6699989B1, “Antiviral and antimicrobial guanidine or biguanidine derivatives” (priority 2000, dated 2004).
≈ marks a conversion by molar mass, not a printed value. Where two headings read alike, the source gives them in different places.

Columns and labels:
[1] = test system: HIV-1; assay: PBMC assay, virus production by reverse transcriptase activity; assay type: cell-based; conditions: ROJO in PBMC
Text: Method 2: PBMC Assay Method (Peripheral Blood Mononuclear cell)—Description
This assay addresses the issue of providing a rationale for further evaluation of the compound by providing evidence of in vitro anti-HIV activity against a low passage clinical strain of HIV-1. These fresh human peripheral blood mononuclear cell assays use fresh human cells obtained from the American Red Cross from uninfected, normal human donors. Mononuclear cells from these blood samples are isolated by centrifugation and infected with low passage clinical strains of HIV-1 which have been obtained by culture of blood cells from HIV-infected patients with uninfected PBMCs. Since the PBMCs are not killed by HIV infection, endpoint quantification is performed by measurement of virus production in each well by reverse transcriptase assay or p24 ELISA. These assays provide evidence that the test compounds will have efficacy against viruses, which will likely be encountered in patients without genetic changes, introduced by passage in cell culture.
Thus, PBMCs assay measures the amount of virus released from the infected cells into the tissue culture supernatant. The activity of the test compound is measured by its ability to reduce the level of virus production relative to the virus controls (cells+virus with no added compound). In PBMC culture we use reverse transcriptase activity in the supernatant to quantify the amount of virus production from the infected cells. Endpoint quantification is performed at 6 days post-infection.
Fresh human peripheral blood lymphocytes (PBL) are isolated from voluntary Red Cross donors, seronegative for HIV and HBV. Leukophoresed blood is diluted 1:1 with Dulbecco's phosphate buffered saline (PBS), layered over 14 mL of Ficoll-Hypaque density gradient in a 50 mL centrifuge tube. Tubes are then centrifuged for 30 minutes at 600×g. Banded PBLs are gently aspirated from the resulting interface and subsequently washed 2× with PBS by low speed centrifugation. […] After incubation, PBLs are centrifuged and reset in RPMI 1640 with 15% FBS, 2 mM L-glutamine, 100 U/mL. penicillin, 100 ug/mL streptomycin, 10 ug/mL gentamycin, and 20 U/mL recombinant human IL-2. PBLs are maintained in this medium at a concentration of 1-2×10E6/mL with bi-weekly medium changes, until use in assay protocol. For the PBL assay, PHA-P stimulated cells from at least two normal donors are pooled, set in fresh medium at 2×10E6/mL and plated in the interior wells of a 96 well round bottom microplate at 50 μL/well. Test drug dilutions are prepared at a 2× concentration in microtiter tubes and 100 μL of each concentration is placed in appropriate wells in a standard format. 50 μL of a predetermined dilution of virus stock is placed in each test well. Wells with cells and virus alone are used for virus control. Separate plates are identically set without virus for drug cytotoxicity studies using an XTT assay system.
In the standard PBL assay (MOI: 0.2), the assay was ended on day 7 following collection of cell free supernatant samples for reverse transcriptase activity assay. In the low MOI PBL assay (MOI: 0.02), supernatant samples were collected on day 6, day 11, and day 14 post-infection and analyzed for RT activity.

[2] = test system: PBMCs; assay: Toxicity to PBMC, XTT; assay type: cell-based, human
[3] = test system: HIV-1; conditions: CEM-SS, HIV1 RF
Method: This is a cytoprotection assay that uses the T-lymphoblastoid tumor cell line CEM-SS and laboratory adapted strains of HIV-1. Upon infection with HIV, the CEM-SS cells form syncytia and eventually die, producing large amounts of progeny virus over the course of 4-6 days at the standard multiplicity of infection (0.01). The antiviral assay measures the ability of a given compound to inhibit the HIV-induced cell killing. […] The activity of the compound is evaluated by measuring cell viability at 6 days post-infection and comparing the viability to that obtained in cell control (cells only), virus control (cells and virus only) and toxicity control (cells and compound only) wells.
Efficacy of the compound in cell culture is measured by increased cell viability in CEM-SS assays or reduction in virus production in PBMC assays. The data obtained yields a dose response curve which can be evaluated to determine doses which yield 25%, 50% and 95% protection from HIV-induced cell killing or virus production. […] These concentrations are reported as the TC25, TC50 and TC95 values. The ratio of toxicity to efficacy constitutes the therapeutic index TC50/IC50.
CEM-SS cells assay measures the ability of the compound to inhibit HIV induced cell killing. The cells are stained at 6 days post-infection with the tetrazolium dye XTT which is converted to a colored formazan product by the mitochondria of viable cells. Protection from cell killing afforded by the test compound is measured by comparison to both cell controls and virus controls. Cell killing in this system is directly related to the amount of virus produced by the infected cells and XTT-formazan production is proportional to the number of viable cells in each well. Toxicity of the compound to the target cells is measured in parallel.
CEM-SS cells (or other established human cell line used in these experiments) were passaged in T-150 flasks for use in the assay. On the day preceding the assay, the cells were split 1:2 to assure they would be in an exponential growth phase at time of infection. On the day of assay the cells were washed twice with tissue culture medium and resuspended in fresh tissue culture medium. Total cell and viability counting was performed using hemacytometer and trypan blue dye exclusion. Cell viability was greater than 95% for the cells to be utilized in the assay. The cells were pelleted and resuspended at 2.5×10^4 cells per ml in tissue culture medium. Cells were added to the drug-containing plates in a volume of 50 μl.
A pretitered aliquot of virus was removed from the freezer (−80° C.) and allowed to thaw slowly to room temperature in a biological safety cabinet. The virus was resuspended and diluted into tissue culture medium such that the amount of virus added to each well in a volume of 50 μl will be the amount determined to give complete cell killing at 6 days post-infection. In general the virus pools produced with the IIIB isolate of HIV required the addition of 5 μl of virus per well.
Each plate contained cell control wells (cells only), virus control wells (cells plus virus), drug toxicity control wells (cells plus drug only), drug colorimetric control wells (drug only) as well as experimental wells (drug plus cells plus virus).
After 6 days of incubation at 37° C. in a 5% CO2 incubator the test plates were analyzed by staining with the tetrazolium dye XTT. XTT-tetrazolium is metabolized by the mitochondrial enzymes of metabolically active cells to a soluble formazan product, allowing the rapid quantitative analysis of the inhibition of HIV-induced cell killing by anti-HIV test substances. On day 6 post-infection plates were removed from the incubator and observed.

[4] = test system: CEM-SS cells; assay type: cell-based; conditions: CEM-SS
[5] = test system: Staphylococcus aureus ATCC 6538; assay: Microdilution broth MIC assay; assay type: cell-based; conditions: ATCC6538, Sa, Mueller Hinton broth, about 17 hr
Method: (§1) Test organisms. The test organisms are listed in Table 5 along with their source. Prior to assay, overnight bacterial slant cultures were used to inoculate Mueller Hinton broth followed by incubation for 5-7 hr. Each culture was then standardized turbidimetrically to a viable count of about 10^6 colony forming units/ml and used to inoculate the mirotiter assay plates. The viable count after addition to the plates was about 5×10^5 CFU/ml.
(§2) Experimental design. The MIC of the test compounds for the bacterial strains was determined with a microdilution broth assay in 96 well microtiter plates. The test compounds were dissolved in DMSO and then diluted 10-fold in assay medium (Mueller Hinton broth) to obtain final concentrations of 0.128, 1.28, 12.8, and 128 μg/ml. A viability control containing DMSO, diluted in the same manner as the test compounds, was used to confirm that the DMSO was not inhibitory by itself. Trimethoprim (TMP) was used as a positive drug control. The assay plates were incubated at 37° C. for about 17 hr and each assay well observed visually for growth. The MIC was determined at the lowest concentration of drug which inhibited growth. [drawing 32]

[6] = test system: Staphylococcus epidermidis ATCC 35984; assay: Microdilution broth MIC assay; assay type: cell-based; conditions: ATCC35984, Se, Mueller Hinton broth, about 17 hr
Method: as §1, §2

[7] = test system: Escherichia coli ATCC 11229; assay: Microdilution broth MIC assay; assay type: cell-based; conditions: ATCC11229, Ec, Mueller Hinton broth, about 17 hr
Method: as §1, §2

[8] = test system: Klebsiella pneumoniae ATCC 4352; assay: Microdilution broth MIC assay; assay type: cell-based; conditions: ATCC4352, Kp, Mueller Hinton broth, about 17 hr
Method: as §1, §2

[9] = test system: Pseudomonas aeruginosa ATCC 15442; assay: Microdilution broth MIC assay; assay type: cell-based; conditions: ATCC15442, Pa, Mueller Hinton broth, about 17 hr
Method: as §1, §2

[10] = test system: Streptococcus pneumoniae ATCC 6303; assay: Microdilution broth MIC assay; assay type: cell-based; conditions: ATCC6303, Sp, Mueller Hinton broth, about 17 hr
Method: as §1, §2

[11] = test system: Proteus mirabilis ATCC 9921; assay: Microdilution broth MIC assay; assay type: cell-based; conditions: ATCC9921, Pm, Mueller Hinton broth, about 17 hr
Method: as §1, §2

Compound: Cc1cn([C@H]2C[C@H](N=[N+]=[N-])[C@@H](CO)O2)c(=O)[nH]c1=O [AZT, reference compound]
- RT ACTIVITY % VC ([1]; 0.0013 μM): 104.6%
- RT ACTIVITY MEAN ([1]; 0.0013 μM): 7531.7 cpm
- RT ACTIVITY % VC ([1]; 0.013 μM): 77.3%
- RT ACTIVITY MEAN ([1]; 0.013 μM): 5566.3 cpm
- RT ACTIVITY % VC ([1]; 0.04 μM): 81.7%
- RT ACTIVITY MEAN ([1]; 0.04 μM): 5880.0 cpm
- RT ACTIVITY % VC ([1]; 0.13 μM): 32.3%
- RT ACTIVITY MEAN ([1]; 0.13 μM): 2397.0 cpm
- RT ACTIVITY % VC ([1]; 0.4 μM): 3.8%
- RT ACTIVITY MEAN ([1]; 0.4 μM): 274.0 cpm
- RT ACTIVITY % VC ([1]; 1.3 μM): 8.8%
- RT ACTIVITY MEAN ([1]; 1.3 μM): 88.0 cpm
- RT ACTIVITY % VC ([1]; 4 μM): 0.7%
- RT ACTIVITY MEAN ([1]; 4 μM): 48.3 cpm
- IC50 ([1]; RT activity, read-out: IC50): 100 nM
- CC50 [2]: > 4000 nM

Compound: Nc1ccn([C@H]2CC[C@@H](CO)O2)c(=O)n1 [DDC, di-deoxycytosine, reference compound]
- % RED. IN VIRAL CPE ([3]; 0.00003 μM): 1%
- ANTIVIRAL TEST VALUES MEAN O.D. ([3]; 0.00003 μM): 0.014 O.D.
- % RED. IN VIRAL CPE ([3]; 0.0001 μM): 5%
- ANTIVIRAL TEST VALUES MEAN O.D. ([3]; 0.0001 μM): 0.062 O.D.
- % RED. IN VIRAL CPE ([3]; 0.00032 μM): 6%
- ANTIVIRAL TEST VALUES MEAN O.D. ([3]; 0.00032 μM): 0.080 O.D.
- % RED. IN VIRAL CPE ([3]; 0.001 μM): 4%
- ANTIVIRAL TEST VALUES MEAN O.D. ([3]; 0.001 μM): 0.057 O.D.
- % RED. IN VIRAL CPE ([3]; 0.0032 μM): 8%
- ANTIVIRAL TEST VALUES MEAN O.D. ([3]; 0.0032 μM): 0.109 O.D.
- % RED. IN VIRAL CPE ([3]; 0.01 μM): 9%
- ANTIVIRAL TEST VALUES MEAN O.D. ([3]; 0.01 μM): 0.119 O.D.
- % RED. IN VIRAL CPE ([3]; 0.032 μM): 75%
- ANTIVIRAL TEST VALUES MEAN O.D. ([3]; 0.032 μM): 1.019 O.D.
- % RED. IN VIRAL CPE ([3]; 0.1 μM): 81%
- ANTIVIRAL TEST VALUES MEAN O.D. ([3]; 0.1 μM): 1.099 O.D.
- % RED. IN VIRAL CPE ([3]; 0.32 μM): 92%
- ANTIVIRAL TEST VALUES MEAN O.D. ([3]; 0.32 μM): 1.246 O.D.
- % RED. IN VIRAL CPE ([3]; 1 μM): 86%
- ANTIVIRAL TEST VALUES MEAN O.D. ([3]; 1 μM): 1.166 O.D.
- % RED. IN VIRAL CPE ([3]; 3.2 μM): 100%
- ANTIVIRAL TEST VALUES MEAN O.D. ([3]; 3.2 μM): 1.754 O.D.
- % RED. IN VIRAL CPE ([3]; 10 μM): 100%
- ANTIVIRAL TEST VALUES MEAN O.D. ([3]; 10 μM): 1.687 O.D.
- IC 25% [3]: 0.01 CM
- IC 95% [3]: 2.11 CM
- % CELL VIABILITY ([4]; 0.00003 μM): 100%
- CYTOTOXICITY TEST VALUES MEAN O.D. ([4]; 0.00003 μM): 1.496 O.D.
- % CELL VIABILITY ([4]; 0.0001 μM): 93%
- CYTOTOXICITY TEST VALUES MEAN O.D. ([4]; 0.0001 μM): 1.346 O.D.
- % CELL VIABILITY ([4]; 0.00032 μM): 99%
- CYTOTOXICITY TEST VALUES MEAN O.D. ([4]; 0.00032 μM): 1.428 O.D.
- % CELL VIABILITY ([4]; 0.001 μM): 100%
- CYTOTOXICITY TEST VALUES MEAN O.D. ([4]; 0.001 μM): 1.476 O.D.
- % CELL VIABILITY ([4]; 0.0032 μM): 100%
- CYTOTOXICITY TEST VALUES MEAN O.D. ([4]; 0.0032 μM): 1.450 O.D.
- % CELL VIABILITY ([4]; 0.01 μM): 100%
- CYTOTOXICITY TEST VALUES MEAN O.D. ([4]; 0.01 μM): 1.550 O.D.
- % CELL VIABILITY ([4]; 0.032 μM): 100%
- CYTOTOXICITY TEST VALUES MEAN O.D. ([4]; 0.032 μM): 1.658 O.D.
- % CELL VIABILITY ([4]; 0.1 μM): 96%
- CYTOTOXICITY TEST VALUES MEAN O.D. ([4]; 0.1 μM): 1.391 O.D.
- % CELL VIABILITY ([4]; 0.32 μM): 97%
- CYTOTOXICITY TEST VALUES MEAN O.D. ([4]; 0.32 μM): 1.400 O.D.
- % CELL VIABILITY ([4]; 1 μM): 100%
- CYTOTOXICITY TEST VALUES MEAN O.D. ([4]; 1 μM): 1.469 O.D.
- % CELL VIABILITY ([4]; 3.2 μM): 100%
- CYTOTOXICITY TEST VALUES MEAN O.D. ([4]; 3.2 μM): 1.826 O.D.
- % CELL VIABILITY ([4]; 10 μM): 100%
- CYTOTOXICITY TEST VALUES MEAN O.D. ([4]; 10 μM): 2.064 O.D.
- TC 25% ([4]; XTT): >10.00 CM
- TC 50% ([4]; XTT): >10.00 CM
- TC 95% ([4]; XTT): >10.00 CM

Compound: COc1cc(Cc2cnc(N)nc2N)cc(OC)c1OC [TMP, Trimethoprim, reference compound]
- MIC [5]: 0.064 to 0.64 µg/mL (≈ 0.22 to 2.2 µM)
- MIC [6]: > 64 µg/mL
- MIC [7]: 0.064 to 0.64 µg/mL (≈ 0.22 to 2.2 µM)
- MIC [8]: 0.064 to 0.64 µg/mL (≈ 0.22 to 2.2 µM)
- MIC [9]: > 64 µg/mL
- MIC [10]: 0.64 to 6.4 µg/mL (≈ 2.2 to 22 µM)
- MIC [11]: 0.64 to 6.4 µg/mL (≈ 2.2 to 22 µM)
